pIC50, pKi: −log10 of the molar value. “Also recorded” adds a separate entry of the source.
Columns and labels:
[1] = tested on: NIH3T3 cells expressing v-Src (I338G); test: Anti-phosphotyrosine blots of pyrazolopyrimidine treated NIH3T3 cells (Example 19); type: cell-based
Experimental: The assays were performed by making anti-phosphotyrosine blots of pyrazolopyrimidine (26) (25 μM) treated NIH3T3 cells expressing either v-Src or v-Src (I338G) kinases were performed by lysing cells in modified RIPA buffer according to the method of Coussens et al. (1985) Biol. 2753-2763. Cells were also treated for various times (in a cell culture CO2 incubator) before lysis and anti-phosphotyrosine detection. Proteins were separated by 12.5% SDS-PAGE and transferred to Protran BA85 (Schleicher-Schuell).
(§4) The blot was probed with the anti-phosphotyrosine monoclonal antibody 4G10 and the bound antibody was detected via enhanced chemiluminescence (Pierce) following treatment with HRP-coupled goat-anti-mouse antibody (VWR) according to the manufacturer's instructions.

[2] = tested on: NIH3T3 cells expressing v-Src; test: Anti-phosphotyrosine blots of pyrazolopyrimidine treated NIH3T3 cells (Examples 18-19); type: cell-based; settings: FIG. 12B two left lanes
Experimental: Anti-phosphotyrosine blots of pyrazolo pyrimidine (2-6) (25 μM) treated NIH3T3 cells expressing v-Src kinase were performed by lysing cells in modified RIPA buffer according to the method of Coussens et al. (1985) Biol. 2753-2763. Cells were also treated for various times before lysis and antiphosphotyrosine detection. Proteins were separated by 12.5% SDS-PAGE and transferred to Protran BA85 (Schleicher-Schuell). The blot was probed with the antiphosphotyrosine monoclonal antibody 4G10 (obtained from Dr. Brian Druker, Oregon Health Sciences Center) and the bound antibody was detected via enhanced chemiluminescence (Pierce) following treatment with HRP-coupled goat anti-mouse antibody (VWR) according to the manufacturer's instructions.
The assays were performed by making anti-phosphotyrosine blots of pyrazolopyrimidine (26) (25 μM) treated NIH3T3 cells expressing either v-Src or v-Src (I338G) kinases were performed by lysing cells in modified RIPA buffer according to the method of Coussens et al. (1985) Biol. 2753-2763. […]
as §4

[3] = target: wild-type Fyn (Homo sapiens, UniProt P06241); test: Peptide phosphorylation assay with [γ-32P]ATP (Example 13); type: biochemical; settings: purified kinase; read-out: IC50 for inhibition of wild-type Fyn
Source text: To identify compounds that would not inhibit any existing cellular kinases, Applicant screened the panel of synthetic pyrazolo pyramidine analogs (1-6) against two closely related purified tyrosine kinases, v-Src and Fyn, in a peptide phosphorylation assay using [γ-^32P]

[4] = target: T1, T339G Fyn (Homo sapiens, UniProt P06241, T342G); test: In vitro kinase inhibition assay; type: biochemical
T1 construct: GST; made in house; host or cells: E. coli DH5α (pGEX-KT)

[5] = target: T2, PKA (Homo sapiens, UniProt P17612); test: In vitro kinase inhibition assay; type: biochemical; settings: concentrations up to 300 mM
T2 construct: purchased Pierce
Experimental: (§1) IC50's for non-src family kinases were measured equivalently with the following exceptions. […] An optimized Abl substrate, […] (SEQ ID NO: 18), 133 mg/ml) was used for Abl assays.

[6] = tested on: I338G v-Src transformed NIH-3T3 fibroblasts; test: Microscopy of transformed fibroblasts (light microscopy, phalloidin-FITC); type: cell-based; settings: 100 μM, 48 hours
Experimental: (§2) Non-transformed, WT v-Src transformed, and I338G v-Src transformed NIH-3T3 fibroblasts were grown in DMEM/10% BCS on tissue culture treated slides. v-Src expressing cells were treated with either 1.1% DMSO or 100 μM (^3g) in 1.1% DMSO. After forty-eight hours cells were photographed at 400× magnification on an Nikon TMS light microscope. Immediately following light microscopy, the cells were fixed for twenty minutes in 3.7% formaldehyde/PBS and permeabilized for sixty seconds in 0.2% Triton x-100 in PBS. Permeabilized cells were incubated with 200 ng/ml phalloidin-FITC/PBS for twenty minutes. Slides were rinsed with PBS and polymerized actin was visualized by fluorescence microscopy at 600× magnification on a Zeiss fluorescence microscope.

[7] = tested on: WT v-Src transformed NIH-3T3 fibroblasts; test: as above; type: cell-based; settings: 100 μM, 48 hours
Experimental: as §2

[8] = tested on: I338G v-Src; test: biochemical; parameters: species or system Rous sarcoma virus
[9] = target: T3, I338G v-Src (Rous sarcoma virus subgroup A, UniProt P00524, DEL77-225/I338G); test: biochemical
T3 construct: made in house; host or cells: E. coli DH5α (pGEX-KT)

[10] = target: T4, PKCδ (Homo sapiens, UniProt Q05655); test: In vitro kinase inhibition assay; type: biochemical; parameters: dose or concentration left out as unconfirmed
T4 construct: 6-His; made in house; host or cells: Bac-to-Bac baculovirus system (pFastBac B vector)
Experimental: as §1

[11] = tested on: WT v-Src transformed NIH3T3 cells; test: Inhibition of v-Src in NIH3T3 fibroblasts (phosphotyrosine blot); type: cell-based; settings: 100 μM, twelve hours
Experimental: (§3) Non-transformed NIH3T3 cells, WT v-Src transformed NIH3T3 cells, and I338G v-Src transformed NIH3T3 cells were incubated at 37° C. with 1.1% DMSO or 100 μM (3g) in 1.1% DMSO. After twelve hours, the cells were washed with PBS and lysed (lysis buffer: 1% Triton x-100, 50 mM tris (pH 7.4), 2 mM EDTA, 150 mM NaCl, […], 2 mM sodium orthovanadate, 10 mg/ml leupeptin, 10 mg/ml apoprotin). The lysate was clarified by centrifugation at 13,000 rpm for fifteen minutes. Lysate protein concentrations were normalized and equal volumes of the lysate were resolved electrophoretically and analyzed for phosphotyrosine content as described above.

[12] = tested on: I338G v-Src transformed NIH3T3 cells; test: as above; type: cell-based
Experimental: as §3

T1 sequence (P06241 1-534 isoform P06241-2 T339G): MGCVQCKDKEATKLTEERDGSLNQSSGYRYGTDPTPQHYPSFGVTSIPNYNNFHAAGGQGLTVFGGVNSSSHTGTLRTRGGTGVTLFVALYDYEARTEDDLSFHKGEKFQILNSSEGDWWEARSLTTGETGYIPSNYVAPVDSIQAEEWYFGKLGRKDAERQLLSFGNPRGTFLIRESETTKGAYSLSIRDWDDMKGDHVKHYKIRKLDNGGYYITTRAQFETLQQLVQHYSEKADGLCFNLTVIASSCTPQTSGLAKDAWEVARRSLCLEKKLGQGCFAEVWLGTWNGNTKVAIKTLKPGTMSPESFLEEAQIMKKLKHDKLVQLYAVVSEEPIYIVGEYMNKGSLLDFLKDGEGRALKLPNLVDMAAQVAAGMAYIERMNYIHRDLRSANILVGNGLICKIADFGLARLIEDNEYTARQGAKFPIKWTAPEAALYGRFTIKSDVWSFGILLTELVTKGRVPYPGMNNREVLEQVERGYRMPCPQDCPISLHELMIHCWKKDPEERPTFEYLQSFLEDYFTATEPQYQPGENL
wild-type Fyn, sequence (P06241 whole entry, species assumed): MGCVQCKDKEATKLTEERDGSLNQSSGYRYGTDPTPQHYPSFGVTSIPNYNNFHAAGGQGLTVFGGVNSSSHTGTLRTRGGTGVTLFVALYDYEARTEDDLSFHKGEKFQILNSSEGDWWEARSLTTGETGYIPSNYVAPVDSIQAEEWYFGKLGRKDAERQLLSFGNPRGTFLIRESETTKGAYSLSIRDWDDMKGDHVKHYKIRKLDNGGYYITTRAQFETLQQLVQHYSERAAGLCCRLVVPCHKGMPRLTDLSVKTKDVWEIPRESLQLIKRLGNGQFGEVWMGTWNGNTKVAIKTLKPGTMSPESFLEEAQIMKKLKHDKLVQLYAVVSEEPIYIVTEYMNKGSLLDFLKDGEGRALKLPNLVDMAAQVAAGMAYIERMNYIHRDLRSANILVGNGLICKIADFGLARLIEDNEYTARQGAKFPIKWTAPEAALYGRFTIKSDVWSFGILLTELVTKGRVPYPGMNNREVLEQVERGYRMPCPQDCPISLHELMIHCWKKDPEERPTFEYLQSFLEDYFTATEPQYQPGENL
T4 sequence (Q05655 whole entry): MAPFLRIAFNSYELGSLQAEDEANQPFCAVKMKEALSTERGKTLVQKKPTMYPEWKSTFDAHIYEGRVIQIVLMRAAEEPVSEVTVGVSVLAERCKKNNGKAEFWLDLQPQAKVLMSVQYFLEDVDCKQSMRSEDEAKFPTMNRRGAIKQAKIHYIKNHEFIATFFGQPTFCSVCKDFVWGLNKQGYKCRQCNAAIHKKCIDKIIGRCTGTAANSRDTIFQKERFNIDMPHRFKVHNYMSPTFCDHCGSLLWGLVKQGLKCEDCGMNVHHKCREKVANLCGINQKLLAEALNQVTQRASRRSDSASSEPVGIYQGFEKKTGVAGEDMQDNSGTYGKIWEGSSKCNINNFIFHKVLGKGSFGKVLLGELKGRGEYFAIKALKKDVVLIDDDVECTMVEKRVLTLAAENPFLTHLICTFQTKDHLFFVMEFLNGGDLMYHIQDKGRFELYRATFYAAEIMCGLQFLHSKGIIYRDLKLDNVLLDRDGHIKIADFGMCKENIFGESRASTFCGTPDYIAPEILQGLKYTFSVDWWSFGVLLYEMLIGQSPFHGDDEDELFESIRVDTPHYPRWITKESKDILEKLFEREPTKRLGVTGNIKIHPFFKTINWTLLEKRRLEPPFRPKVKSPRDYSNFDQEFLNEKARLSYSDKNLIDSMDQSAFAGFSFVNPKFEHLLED

SMILES: CC(C)(C)n1nc(-c2ccccc2)c2c(NC(=O)C3CCCC3)ncnc21 [Analog 3b, 4-cyclopentylamido-1-tert-butyl-3-phenylpyrazolo[3,4]pyrimidine]
- 36 kDa phosphoprotein band ([1]; 100 μM): lost after treatment
- inhibitor concentration at which phosphorylation of the 36 kDa band reappears ([1]; inhibitor diluted): < 5 pM
- phosphoprotein band pattern [2]: does not inhibit wild type v-Src kinase
- pIC50 [3]: < 3.40

SMILES: CC(C)(C)c1ccc(C(=O)Nc2ncnc3c2c(-c2ccccc2)nn3C(C)(C)C)cc1 [Analog 3g, 4-(p-tert-butyl)benzamido-1-tert-butyl-3-phenylpyrazolo[3,4-d]pyrimidine]
- pIC50 [4]: 6.08
- selectivity for T339G Fyn over WT Fyn [4]: greater than 300 fold
- inhibition of PKA [5]: not detectably inhibited
- polymerized actin pattern (phalloidin-FITC) ([6]; fluorescence microscopy): defined polymerized actin strings; also recorded: selectively regain actin stress fibers
- cell morphology ([6]; light microscopy): dramatic changes in cell morphology which are consistent with the reversal of transformation; also recorded: selectively acquire a flattened morphology
- polymerized actin pattern (phalloidin-FITC) ([7]; fluorescence microscopy): indistinguishable from untreated WT cells
- cell morphology ([7]; light microscopy): prototypical rounded morphology and overlapping growth patterns of transformed cells
- selectivity for engineered v-Src over WT Fyn ([8]; I338G v-Src vs WT Fyn): over 700 times
- selectivity for mutant v-Src as compared to wild type ([8]; I338G v-Src vs WT v-Src): at least a thousand-fold
- pIC50 [9]: 6.37
- pKi [9]: ~6.40
- mode of inhibition ([9]; Lineweaver-Burk analysis): competitively with respect to ATP
- inhibition of PKCδ [10]: not detectably inhibited
- tyrosine phosphorylation in WT v-Src infected cells [11]: no loss of tyrosine phosphorylation
- cellular IC50 relative to the in vitro value [12]: roughly one-hundred times
- cellular level of phosphotyrosine ([12]; 100 μM, twelve hours): moderate overall decrease
- tyrosine phosphorylation of p36 ([12]; 100 μM, twelve hours): dramatic diminution; also recorded: blocks p36 phosphorylation
- pIC50 ([12]; Mus musculus, NIH3T3, read-out: IC50 for p36 phosphotyrosine signal): 4.30

From US7049116B2, “Engineered protein kinases which can utilize modified nucleotide triphosphate substrates” (Princeton University, priority 1997, dated 2006)
